# Like-named read-outs stand apart in the source and are kept apart here.
# How the values were obtained:
# bombesin/GRP receptor = molecular target: T1, bombesin/GRP receptor (Mus musculus, UniProt P21729); conditions: Swiss 3T3 cells; ref Zachary & Rozengurt, 1985a; cited from earlier work
# T1 construct: endogenous in cells; host or cells: Swiss 3T3 murine fibroblasts (intact, quiescent/confluent)
# Description: Br. J. Cancer (1988), 57, 579-586 ? The Macmillan Press Ltd., 1988 Bombesin and bombesin antagonists: Studies in Swiss 3T3 cells and human small cell lung cancer* P.J. Woll & E. Rozengurt Imperial Cancer Research Fund, PO Box 123, Lincoln's Inn Fields, London WC2A 3PX, UK.
# H69 SCLC cell line = experiment: Growth of H69 SCLC cell line in serum-free HITES medium (Coulter counter); type: cell-based, human; conditions: peptide A at 150 pM (so in the source), HITES medium + 0.25% bovine serum albumin, inoculum 5 x 10^4 cells, mean of 3; restored by washing; Figure 3 left
# [1] = tested on: vasopressin-stimulated DNA synthesis in Swiss 3T3 cells; conditions: ref Zachary & Rozengurt, 1986, Corps et al., 1985; cited from earlier work
# Description: (§1) Br. J. Cancer (1988), 57, 579-586 ? The Macmillan Press Ltd., 1988 Bombesin and bombesin antagonists: Studies in Swiss 3T3 cells and human small cell lung cancer* P.J. Woll & E. Rozengurt Imperial Cancer Research Fund, PO Box 123, Lincoln's Inn Fields, London WC2A 3PX, UK. Summary Bombesins are potent growth factors for murine Swiss 3T3 cells. Using these cells in chemically defined conditions we have been able to characterise the bombesin receptor and the early signals preceding DNA synthesis. We describe two substance P analogues [DArg1, DPro2, DTrp7 9, Leu1 ] substance P and [DArg1, DPhe5, ...
# Swiss 3T3 cells [2] = conditions: ref Zachary & Rozengurt, 1985a; cited from earlier work
# Description: as §1
# Na+/K+ pump = conditions: Swiss 3T3 cells; ref Mendoza et al., 1986; cited from earlier work
# Description: as §1
# EGF receptor = conditions: Swiss 3T3 cells; ref Zachary et al., 1986; cited from earlier work
# Description: as §1
# [3] = tested on: protein kinase C (80K phosphorylation); conditions: Swiss 3T3 cells; ref Zachary et al., 1986; cited from earlier work
# Description: as §1
# [4] = molecular target: T2, Mr 75,000-85,000 protein component of the bombesin/GRP receptor (Mus musculus, UniProt P21729); conditions: Swiss 3T3 cells; ref Zachary & Rozengurt, 1987a; cited from earlier work
# T2 construct: endogenous in cells; host or cells: Swiss 3T3 murine fibroblasts (intact, quiescent/confluent)
# Description: as §1
# [5] = tested on: c-fos and c-myc expression; conditions: Swiss 3T3 cells; ref Rozengurt & Sinnett-Smith, 1987; cited from earlier work
# Description: as §1
# Ca2+ mobilization = conditions: Swiss 3T3 cells; ref Mendoza et al., 1986; cited from earlier work
# Description: as §1
# [6] = tested on: GRP-stimulated mitogenesis in Swiss 3T3 cells; conditions: ref Zachary & Rozengurt, 1985a; cited from earlier work
# Description: as §1
# pancreatic acinar cells = conditions: ref Jensen et al., 1984; cited from earlier work
# Swiss 3T3 cells [7] = tested on: Swiss 3T3 cells; design: method as in 2 sources, one per row (each row's own in cited_ref): ref Rozengurt & Sinnett-Smith, 1983 ||| ref Zachary & Rozengurt, 1985a; conditions: serum-free medium, cited from earlier work
# T1 sequence (P21729 whole entry): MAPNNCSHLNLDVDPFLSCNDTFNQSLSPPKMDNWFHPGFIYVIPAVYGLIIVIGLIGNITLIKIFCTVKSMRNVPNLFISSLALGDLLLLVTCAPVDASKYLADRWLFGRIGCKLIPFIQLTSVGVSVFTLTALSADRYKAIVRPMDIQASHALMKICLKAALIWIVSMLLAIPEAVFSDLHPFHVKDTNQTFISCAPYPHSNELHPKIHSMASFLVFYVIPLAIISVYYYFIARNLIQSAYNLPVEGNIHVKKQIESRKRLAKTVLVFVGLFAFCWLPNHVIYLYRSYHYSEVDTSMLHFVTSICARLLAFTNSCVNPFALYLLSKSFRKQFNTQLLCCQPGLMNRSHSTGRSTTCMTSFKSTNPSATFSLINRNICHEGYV
# T2 sequence (P21729 whole entry): as above
compound,measurement,setting,value
"Arg Pro Lys Pro Gln Gln Phe Phe Gly Leu Met NH2 [substance P, tachykinin with minimal structural homology with bombesin, reference compound]",inhibition of [125I]GRP binding by other mitogens and neuropeptides,bombesin/GRP receptor,not inhibited
"vasoactive intestinal peptide [VIP, reference compound]",inhibition of [125I]GRP binding by other mitogens and neuropeptides,bombesin/GRP receptor,not inhibited
"DArg Dpro Lys Pro Gln Gln DTrp Phe DTrp Leu Leu NH2 [peptide A, [DArg1, DPro2, DTrp7,9, Leu11] substance P]",effect on growth of H69 cells,H69 SCLC cell line,suppressed
same,effect on [125I]GRP binding (Table III),bombesin/GRP receptor,reversibly blocks
same,effect on stimulation of DNA synthesis by vasopressin (Table III),[1],reversibly blocks
same,"effect on DNA synthesis stimulated by PDGF, EGF, phorbol esters and c-AMP-increasing agents (Table III)",Swiss 3T3 cells [2],is not affected
same,effect on activation of Na+/K+ pump (Table III),Na+/K+ pump,reversibly blocks
same,effect on EGF transmodulation (Table III),EGF receptor,reversibly blocks
same,effect on 80K phosphorylation (Table III),[3],reversibly blocks
same,"effect on cross-linking of [125I]GRP to the Mr 75,000-85,000 glycoprotein (Table III)",[4],reversibly blocks
same,effect on increase in c-fos and c-myc expression (Table III),[5],reversibly blocks
same,effect on Ca2+ mobilization (Table III),Ca2+ mobilization,reversibly blocks
same,effect on stimulation of DNA synthesis by bombesin-like peptides (Table III),[6],reversibly blocks
same,effect on secretory effects of bombesin in pancreatic acinar cells,pancreatic acinar cells,block the secretory effects of bombesin
"pGlu Gin Arg Leu Gly Asn Gin Trp Ala Val Gly His Leu Met NH2 [bombesin, tetradecapeptide first isolated from amphibian skin]",EC50,"Swiss 3T3 cells [7]; absence of other growth-promoting agents, ref Rozengurt & Sinnett-Smith, 1983, read-out: bombesin concentration giving half-maximal effect on DNA synthesis",1 nM
same,EC50,"Swiss 3T3 cells [7]; in the presence of insulin, ref Zachary & Rozengurt, 1985a, read-out: bombesin concentration required to produce a half-maximal response (DNA synthesis) with insulin",0.3 nM
"CCCC(=O)O[C@@H]1[C@@H](C)[C@@]2(O)[C@@H](C=C(CO)C[C@]3(O)C(=O)C(C)=C[C@@H]23)[C@@H]2C(C)(C)[C@]12OC(=O)CCC [PBt2, phorbol 12,13, dibutyrate, reference compound]",inhibition of [125I]GRP binding by other mitogens and neuropeptides,bombesin/GRP receptor,not inhibited
PDGF,inhibition of [125I]GRP binding by other mitogens and neuropeptides,bombesin/GRP receptor,not inhibited
EGF: epidermal growth factor,inhibition of [125I]GRP binding by other mitogens and neuropeptides,bombesin/GRP receptor,not inhibited
insulin,inhibition of [125I]GRP binding by other mitogens and neuropeptides,bombesin/GRP receptor,not inhibited
vasopressin [reference compound],inhibition of [125I]GRP binding by other mitogens and neuropeptides,bombesin/GRP receptor,not inhibited

# From PMC2246472, “Bombesin and bombesin antagonists: studies in Swiss 3T3 cells and human small cell lung cancer” (British Journal of Cancer, 1988)
